The results in this text go back to patent US20240409558A1, “IRREVERSIBLE INHIBITORS OF KRAS” (BIOMEA FUSION, INC., priority 2021, published 2024).

A word on the IC50: it is the concentration at which inhibition is half-maximal.

Molecules are shown by their SMILES. Like-named read-outs stand apart in the source and are kept apart here.

For the test, the system named is human KRAS G12C mutated cell line MIA PaCa-2. In words: Inhibition of proliferation of MIA PaCa-2 cells (CellTiter-Glo, 7 day). It is filed as cell-based. As to conditions: 168 h. From the text:
The present example evaluates the ability of compounds provided herein to inhibit proliferation of KRAS mutant cells.
The proliferation inhibitory effect was investigated in the human KRAS G12C mutated cell line MIA PaCa-2 (Yunis et al., 1977, Int. J. Cancer 19(1):128-135; ATCC catalog no. CRL-1420). Cells were maintained in RPMI-1640 medium (ThermoFisher catalog no. 61870036) supplemented with 10% of Heat Inactivated FBS (ThermoFisher catalog no. A31605) and 1% Pen-Strep (ThermoFisher catalog no. 10378016) and cultured at 37° C. in a humidified incubator with 5% CO2. Cell lines were grown by adhering to culture flasks, and the cells were maintained in a range 70%-80% confluency.
ATP is present in all metabolically active cells and is considered as a marker for cell viability and proliferation. Metabolic cell activity was determined using the CellTiter-Glo kit (Promega catalog no. G7572), an ATP monitoring system based on the production of luminescence by the reaction of ATP with added UltraGlo® recombinant luciferase (Kawano et al., 2016, PLOS One, 8; 11(7):e0158888), according to the supplier's experimental recommendations. The assay was based on a 96 well plate format.
Test compounds were dissolved at 10 mM in DMSO (Sigma catalog no. D8418; purity >99.9%) and stored at −20° C. Eight concentrations of test compound were assessed in duplicate in an individual test occasion in parallel in the selected cell lines. MRTX-849 and AMG-510 were used as reference compounds and tested in duplicate at eight concentrations. 100% of proliferation is represented by the untreated cells (0.2% DMSO).
On the day of the experiment (TO), cells were detached with TrypLE (ThermoFisher catalog no. 12604054) and quantified using the Vi-CELL XR Cell Viability (Beckman Coulter) analyzer and diluted with fresh medium to obtain the cell density of about 1000 cells per 200 μL medium. 200 μL of cell suspension were added into wells in the 96 well plate.
After 2 hours from seeding cells, compounds were added using a D300e compound dispenser (Tecan Trading AG) at desired concentrations with shaking between each compound dispensed. Cell plates containing 200 μL/well were incubated at 37° C. in a humidified incubator with 5% CO2.
On day T3, 150 μL of growth media per well were removed from plates containing the samples, 150 uL fresh growth media were added to each well, and fresh compounds were added using a D300e compound dispenser (Tecan Trading AG) at desired concentrations with shaking between each compound dispensed. Cell plates containing 200 uL/well were incubated at 37° C. in a humidified incubator with 5% CO2. On day T7 plates containing the samples were equilibrated at room temperature for approximately 15 min, and then 40 μL/well of the Promega CellTiterGlo® reagent was added. Contents were mixed for 30 minutes on an orbital shaker to induce cell lysis. Luminescence was read using a Synergy Neo 2 (Agilent Technologies.
Data was expressed as % of inhibition compared to the 0.2% DMSO negative control, and is calculated as follows: % inhibition=100−[(RLU sample)×100/(RLU controls*)], where * indicates the average for 0.2% DMSO. […]
On the day of the experiment (TO), cells were detached with TrypLE (ThermoFisher catalog no. 12604054), quantified using the Vi-CELL XR Cell Viability (Beckman Coulter) analyzer and resuspended in fresh medium at a cell density of about 1000 cells per 200 μL medium. 200 μL of cell suspension were added to each well of a 96 well plate.
Two hours after seeding cells, compounds were added at desired concentrations using a D300e compound dispenser (Tecan Trading AG) with shaking after each compound addition. Assay plates were incubated at 37° C. in a humidified incubator with 5% CO2.
On day 3 (T3) 150 μL of medium from assay plates were removed. 150 μL fresh medium and compounds were added at desired concentrations using a D300e compound dispenser (Tecan Trading AG) with shaking after each compound addition. […]

Where [1] appears, read: Table 3, 7 day, mean, read-out: MIA PaCa-2 IC50 (μM) 7 day Mean.
Where [2] appears, read: Table 4, 7 day, mean, read-out: MIA PaCa-2 IC50 (μM) 7 day Mean.
Where [3] appears, read: Table 2, CellTiter-Glo luminescence read on day 7, read-out: MIA PaCa-2 IC50.

Turning to `C=CC(=O)N1CCN(c2nc(OC[C@@]34CCCN3C[C@H](F)C4)nc3cc(-c4cccc5cccc(Cl)c45)c(F)cc23)CC12CC2` [Compound 323], under setting [1], the IC50 is above 1 µM. Same read-out and setting: then `C=CC(=O)N1CCN(c2nc(OC[C@@]34CCCN3C[C@H](F)C4)nc3cc(-c4c(O)cccc4C4CC4)c(F)cc23)[C@H](C)C1` [Compound 325, 1-[(3R)-4-[7-(2-cyclopropyl-6-hydroxy-phenyl)-6-fluoro-2-[[(2R,8S)-2-fluoro-1,2,3,5,6,7-hexahydropyrrolizin-8-yl]methoxy]quinazolin-4-yl]-3-methyl-piperazin-1-yl]prop-2-en-1-one], with 0.0112 µM.

As to `CCC1(c2nc(OC[C@@]34CCCN3C[C@H](F)C4)nc3c(F)c(-c4cc(O)cc(Cl)c4C4CC4)ncc23)CCNCC1` [Compound 441], the concentration for half-maximal inhibition (IC50) under setting [2] was above 1 µM. In the case of `CC(C)C(O)CN1C2CCC1CN(c1nc(OC[C@@]34CCCN3C[C@H](F)C4)nc3c(F)c(-c4cc(O)cc(Cl)c4C4CC4)ncc13)C2` (some centres unmarked) [Compound 434], under setting [2], the IC50 was above 1 µM.

With `C=C(F)C(=O)N1C2CCC1CN(c1nc(OC[C@@]34CCCN3C[C@H](F)C4)nc3c(F)c(-c4cc(O)cc(Cl)c4C4CC4)ccc13)C2` [Compound 307, 1-[3-[7-(3-chloro-2-cyclopropyl-5-hydroxy-phenyl)-8-fluoro-2-[[(2R,8S)-2-fluoro-1,2,3,5,6,7-hexahydropyrrolizin-8-yl]methoxy]quinazolin-4-yl]-3,8-diazabicyclo[3.2.1]octan-8-yl]-2-fluoro-prop-2-en-1-one], the IC50 under setting [1] is 0.126 µM. On to `Oc1cc(Cl)c(C2CC2)c(-c2cnc3c(N4CCNCC45CC5)nc(OC[C@@]45CCCN4C[C@H](F)C5)nc3c2)c1` [Compound 414, 3-chloro-4-cyclopropyl-5-[4-(4,7-diazaspiro[2.5]octan-4-yl)-2-[[(2R,8S)-2-fluoro-1,2,3,5,6,7-hexahydropyrrolizin-8-yl]methoxy]pyrido[3,2-d]pyrimidin-7-yl]phenol], for which the concentration for half-maximal inhibition (IC50) under setting [2] is above 1 µM.

Regarding `C[C@H]1CC(c2nc(OC[C@@]34CCCN3C[C@H](F)C4)nc3c(F)c(-c4cc(O)cc5ccc(F)c(F)c45)ncc23)CCN1` (stereo partly drawn) [Compound 439, 5,6-difluoro-4-[8-fluoro-2-[[(2R,8S)-2-fluoro-1,2,3,5,6,7-hexahydropyrrolizin-8-yl]methoxy]-4-[(2S)-2-methyl-4-piperidyl]pyrido[4,3-d]pyrimidin-7-yl]naphthalen-2-ol], the IC50 under setting [2] is above 1 µM. Consider `C=CC(=O)N1C2CCC1CN(c1nc(OC[C@@]34CCCN3C[C@H](F)C4)nc3c(F)c(N4CC(O)Cc5cccc(Cl)c54)ncc13)C2` (stereo partly drawn) [Compound 328, 1-[3-[7-(8-chloro-3-hydroxy-3,4-dihydro-2H-quinolin-1-yl)-8-fluoro-2-[[(2R,8S)-2-fluoro-1,2,3,5,6,7-hexahydropyrrolizin-8-yl]methoxy]pyrido[4,3-d]pyrimidin-4-yl]-3,8-diazabicyclo[3.2.1]octan-8-yl]prop-2-en-1-one], for which the IC50 under setting [1] was above 1 µM. As for `CC1(c2nc(OC[C@@]34CCCN3C[C@H](F)C4)nc3c(F)c(-c4cc(O)cc(Cl)c4C4CC4)ncc23)CCNCC1` [Compound 442, 3-chloro-4-cyclopropyl-5-[8-fluoro-2-[[(2R,8S)-2-fluoro-1,2,3,5,6,7-hexahydropyrrolizin-8-yl]methoxy]-4-(4-methyl-4-piperidyl)pyrido[4,3-d]pyrimidin-7-yl]phenol], the half-maximal inhibitory concentration (IC50) under setting [2] was 8.87 µM.

Take `C=CC(=O)N1CCN(c2nc(OC[C@@]34CCCN3C[C@H](F)C4)nc3cc(-c4cc(O)cc(Cl)c4C4CC4)cnc23)CC12CC2` [Compound 314, 1-[7-[7-(3-chloro-2-cyclopropyl-5-hydroxy-phenyl)-2-[[(2R,8S)-2-fluoro-1,2,3,5,6,7-hexahydropyrrolizin-8-yl]methoxy]pyrido[3,2-d]pyrimidin-4-y1]-4,7-diazaspiro[2.5]octan-4-yl]prop-2-en-1-one]: the IC50 under setting [1] was above 1 µM. Regarding `Oc1cc(Cl)c(C2CC2)c(-c2ccc3c(C4CCNCC4)nc(OC[C@@]45CCCN4C[C@H](F)C5)nc3c2F)c1` [Compound 430, 3-chloro-4-cyclopropyl-5-[8-fluoro-2-[[(2R,8S)-2-fluoro-1,2,3,5,6,7-hexahydropyrrolizin-8-yl]methoxy]-4-(4-piperidyl)quinazolin-7-yl]phenol], the IC50 under setting [2] amounted to 0.983 µM.

For `C=CC(=O)N1C[C@H]2C[C@@H]1CN2c1nc(OC[C@@]23CCCN2C[C@H](F)C3)nc2c(F)c(-c3cc(O)cc(Cl)c3C3CC3)ccc12` [Compound 311, 1-[(1R,4R)-5-[7-(3-chloro-2-cyclopropyl-5-hydroxy-phenyl)-8-fluoro-2-[[(2R,8S)-2-fluoro-1,2,3,5,6,7-hexahydropyrrolizin-8-yl]methoxy]quinazolin-4-yl]-2,5-diazabicyclo[2.2.1]heptan-2-yl]prop-2-en-1-one], the IC50 under setting [1] was above 1 µM.

As to `Oc1cc(Cl)c(C2CC2)c(-c2ccc3c(N4C[C@H]5CC[C@@H](C4)N5)nc(OC[C@@]45CCCN4C[C@H](F)C5)nc3c2F)c1` [Compound 201, 3-(4-((1R,5S)-3,8-diazabicyclo[3.2.1]octan-3-yl)-8-fluoro-2-(((2R,7aS)-2-fluorotetrahydro-1H-pyrrolizin-7a(5H)-yl)methoxy)quinazolin-7-yl)-5-chloro-4-cyclopropylphenol], under setting [3], the IC50 stood at 0.358 µM. `C=CC(=O)N1CCC(CC)(c2nc(OC[C@@]34CCCN3C[C@H](F)C4)nc3c(F)c(-c4cc(O)cc(Cl)c4C4CC4)ncc23)CC1` [Compound 332, 1-[4-[7-(3-chloro-2-cyclopropyl-5-hydroxy-phenyl)-8-fluoro-2-[[(2R,8S)-2-fluoro-1,2,3,5,6,7-hexahydropyrrolizin-8-yl]methoxy]pyrido[4,3-d]pyrimidin-4-yl]-4-ethyl-1-piperidyl]prop-2-en-1-one]: under setting [1], the IC50 is above 1 µM. Still for that read-out and setting: then `C=CC(=O)N1C2CCC1CN(c1nc(OC[C@@]34CCCN3C[C@H](F)C4)nc3cc(-c4cccc5cccc(Cl)c45)ccc13)C2` [Compound 324, 1-[3-[7-(8-chloro-1-naphthyl)-2-[[(2R,8S)-2-fluoro-1,2,3,5,6,7-hexahydropyrrolizin-8-yl]methoxy]quinazolin-4-y1]-3,8-diazabicyclo[3.2.1]octan-8-yl]prop-2-en-1-one], with above 1 µM. For the molecule `Oc1cc(Cl)c(C2CC2)c(-c2cnc3c(N4CCNC5(CC5)C4)nc(OC[C@@]45CCCN4C[C@H](F)C5)nc3c2)c1` [Compound 410], the IC50 under setting [2] was above 1 µM. The same measure, in the same setting: to `Fc1cc2c(N3CCNCC34CC4)nc(OC[C@@]34CCCN3C[C@H](F)C4)nc2cc1-c1cccc2cccc(Cl)c12` [Compound 408, 7-(8-chloro-1-naphthyl)-4-(4,7-diazaspiro[2.5]octan-4-yl)-6-fluoro-2-[[(2R,8S)-2-fluoro-1,2,3,5,6,7-hexahydropyrrolizin-8-yl]methoxy]quinazoline] belongs above 1 µM. Consider `Oc1cc(Cl)c(C2CC2)c(-c2ncc3c(C4CCNCC4)nc(OC[C@@]45CCCN4C[C@H](F)C5)nc3c2F)c1` [Compound 433], for which the half-maximal inhibitory concentration (IC50) under setting [2] is above 1 µM. Regarding `F[C@H]1CN2CCC[C@@]2(COc2cc(N3C[C@H]4C[C@@H]3CN4)c3ncc(-c4cccc5cccc(Cl)c45)cc3n2)C1` [Compound 422, 7-(8-chloro-1-naphthyl)-4-[(1R,4R)-2,5-diazabicyclo[2.2.1]heptan-2-y1]-2-[[(2R,8S)-2-fluoro-1,2,3,5,6,7-hexahydropyrrolizin-8-yl]methoxy]-1,5-naphthyridine], under setting [2], the IC50 is above 1 µM. Take `Oc1cc(Cl)c(C2CC2)c(-c2ccc3c(C4CC5CCC(C4)N5)nc(OCC45CCCN4CC(F)C5)nc3c2F)c1` (centres unmarked) [Compound 205]: the IC50 under setting [3] worked out at 0.358 µM.
